Measured values from PMC10425210 (The Journal of Clinical Investigation, 2023).
Where “and” joins values, the source holds several entries; their conditions need not be identical. Equal entries are not always repeated. Where two headings read alike, the source gives them in different places.

Experiments:
SHIV-SF162P3 = experiment: Antiviral assay in rhesus PBMCs acutely infected with SHIV.SF162P3; assay type: cell-based, rhesus macaque; settings: for SHIV Replication (Mean): representative assay, N 3
Protocol: Freshly isolated PBMCs from 3 male Indian rhesus macaque (Macaca mulatta) donors were obtained from Human Cells Biosciences. Rhesus PBMCs were cultured in RPMI-1640 cell culture media (Life Technologies) supplemented with 10% heat-inactivated FBS (Hyclone), 2 mM glutamine, and 100 units/mL penicillin plus 100 μg/mL streptomycin (complete RPMI). Prior to their use in antiviral assays, PBMCs from 3 independent donors were pooled and activated at a density of 3 × 10^6 cells per mL for 72 hours at 37°C by addition of 1 μg/mL PHA (Sigma-Aldrich) and 50 units/mL recombinant human IL-2 (Roche Diagnostics).
Briefly, PHA/IL-2–stimulated rhesus PBMCs were infected in bulk culture with SHIV.SF162P3 at a concentration of 130 pg p27 equivalent per million PBMCs. Cells were maintained in suspension by gently rocking the cultures mixed with virus inoculum for 3 hours at 37°C. Cells were then pelleted by centrifugation at 500g for 5 minutes, washed twice with complete RPMI to remove any unadsorbed virus, and seeded into 96-well plates at a cell density of 2 × 10^5 cells per well in 100 μL. […] Cultures were incubated in a 5% CO2 incubator at 37°C for 7 days. The cell-free supernatants derived from the PBMC cultures were harvested 7 days after infection, and the amount of SHIV present was quantified using a SIV p27 antigen capture ELISA assay (item 5436, Advanced Bioscience Laboratories Inc.) performed according to the manufacturer’s protocol.

[1] = cited from earlier work
HIV-1 [2] = test system: HIV-1; parameters: method as in ref 11, 12 = [11]; PMID 32612233; doi:10.1038/s41586-020-2443-1; 11 Link JO et al Clinical targeting of HIV capsid protein with a long-acting small molecule Nature 2020 584 7822 614 618 10.1038/s41586-020-2443-1 32612233 PMC8188729 || [12]; 12 Yant SR, et al. GS-6207, A potent and selective first-in-class long-acting HIV-1 capsid inhibitor. Conference on Retroviruses and Opportunistic Infections. https://www.croiconference.org/abstract/g; settings: HIV-1 in MT-4 cells; cited from earlier work
HIV-1 [3] = test system: HIV-1; parameters: method as in ref 11 = [11]; PMID 32612233; doi:10.1038/s41586-020-2443-1; 11 Link JO et al Clinical targeting of HIV capsid protein with a long-acting small molecule Nature 2020 584 7822 614 618 10.1038/s41586-020-2443-1 32612233 PMC8188729; settings: cited from earlier work
[4] = Safety and tolerability of subcutaneous LEN dosing; assay type: in vivo, rhesus macaques
From the text: Injections at all dose levels were generally well tolerated without notable clinical observations. […] Grade 1 edema and/or erythema was observed across multiple time points and animals from all 5 dose groups and was fully resolved by week 11 after dose.
All animals were housed at Bioqual Inc. For the in vivo SHIV stock titration study, 8 untreated outbred Indian-origin male rhesus macaques aged 3–5 years were challenged intrarectally per round for a total of 5 challenge rounds using increasing virus doses ranging from 0.625 to 100 TCID50, with the 100 TCID50 round performed twice for increased resolution (Supplemental Table 2). Plasma viral load was measured to confirm the infection status. […] Injection sites were monitored daily by veterinary staff for 2 weeks and then weekly through the end of study. On week 7, 11 animals were challenged by the intrarectal route with 1 mL RPMI containing 100 TCID50 SHIV-SF162P3. Whole blood was collected and processed into plasma and PBMCs as necessary for the assessment of routine hematology and clinical chemistry, viral load analysis, serology, and the bioanalysis of drug levels. Animals were considered protected if they remained SHIV negative by a plasma PCR assay and seronegative by enzyme immunoassay through week 10 after challenge.

[5] = 927 mg sc twice-yearly after 600 mg oral on days 1 and 2

CC(C)(C#Cc1ccc(-c2ccc(Cl)c3c(NS(C)(=O)=O)nn(CC(F)(F)F)c23)c([C@H](Cc2cc(F)cc(F)c2)NC(=O)Cn2nc(C(F)(F)F)c3c2C(F)(F)[C@@H]2C[C@H]32)n1)S(C)(=O)=O [LEN, Lenacapavir]
SHIV Replication (Mean) (SHIV-SF162P3; LEN 0.011 nM): 98 | SHIV Replication (Mean) (SHIV-SF162P3; LEN 0.034 nM): 91 | SHIV Replication (Mean) (SHIV-SF162P3; LEN 0.103 nM): 99 | SHIV Replication (Mean) (SHIV-SF162P3; LEN 0.309 nM): 60 | SHIV Replication (Mean) (SHIV-SF162P3; LEN 0.926 nM): 18 | SHIV Replication (Mean) (SHIV-SF162P3; LEN 2.778 nM): 1 | SHIV Replication (Mean) (SHIV-SF162P3; LEN 8.333 nM): 0 | SHIV Replication (Mean) (SHIV-SF162P3; LEN 25 nM): 0 | EC50 (SHIV-SF162P3; Macaca mulatta, PBMC, 168 h): 0.39 ± 0.16 nM | paEC95 (protein-adjusted EC95) (SHIV-SF162P3; SHIV, rhesus PBMCs, EC95 x rhesus plasma shift): 8.80 nM and 8.8 nM and 8.80 ± 3.69^E nM | EC95 (SHIV-SF162P3; SHIV-SF162P3, rhesus PBMCs, EC95 = EC50 x (95/5)^1/n): 0.91 nM and 0.91 ± 0.38 nM | time to reach efficacious target concentration after injection ([1]; 927 mg sc after oral lead-in): ≤ 2 h | efficacious target plasma concentration [1, 5]: 15.5 ng/mL | efficacious target plasma concentration (human target Ctrough) [1, 5]: 16 nM | EC50 (HIV-1 [2]): 0.1 nM | EC50 (HIV-1 [3]; 23 HIV-1 clinical isolates, mitogen-activated human PBMCs, 7-day assay): 0.05 ± 0.03 nM | EC95 (HIV-1 [3]; 23 HIV-1 isolates, human PBMCs): 0.12 nM and 0.12 ± 0.07 nM | safety and tolerability of subcutaneous injection ([4]; all dose levels tested, 5-75 mg/kg): safe and well tolerated | time by which Grade 1 edema and/or erythema was fully resolved ([4]; male, outbred Indian-origin, rhesus monkey, in vivo): ≤ 11 week after dose | Hematology analyses ([4]; rhesus monkey, in vivo): no abnormal values
